# Experimental data taken from ChEMBL document CHEMBL4602719, “Discovery of Potent, Selective, and Orally Bioavailable Inhibitors of USP7 with In Vivo Antitumor Activity” (J Med Chem, 2020).
# Tested on: NCI-H526
# Experiment: Cytotoxicity against human NCI-H526 cells expressing p53 mutant assessed as reduction in cell viability measured after 5 days by CellTiter-Glo assay
# Format: functional
# Conditions: NCI-H526, 120 h
row,Structure (SMILES),CC50
1,Cc1cc(Cl)cc(-c2ccnc3cc(CN4C(=O)CCC4=O)sc23)c1CN1[C@@H](C)CNC[C@@H]1C,2200 nM
2,Cc1cc(Cl)cc(-c2ccnc3cc(CN4C(=O)C5CC5C4=O)sc23)c1C[C@@H]1CNCCO1 (stereo not given in full),3600 nM

# Target: T1, Ubiquitin carboxyl-terminal hydrolase 7 (Homo sapiens, UniProt Q93009)
# Experiment: Inhibition of recombinant full length USP7 (unknown origin) using ubiquintin-rhodamine as substrate preincubated for 30 mins followed by substrate addition measured after 1 hr by fluorescence-based Envision plate reader assay
# Conditions: not given
# T1 sequence (Q93009 whole entry): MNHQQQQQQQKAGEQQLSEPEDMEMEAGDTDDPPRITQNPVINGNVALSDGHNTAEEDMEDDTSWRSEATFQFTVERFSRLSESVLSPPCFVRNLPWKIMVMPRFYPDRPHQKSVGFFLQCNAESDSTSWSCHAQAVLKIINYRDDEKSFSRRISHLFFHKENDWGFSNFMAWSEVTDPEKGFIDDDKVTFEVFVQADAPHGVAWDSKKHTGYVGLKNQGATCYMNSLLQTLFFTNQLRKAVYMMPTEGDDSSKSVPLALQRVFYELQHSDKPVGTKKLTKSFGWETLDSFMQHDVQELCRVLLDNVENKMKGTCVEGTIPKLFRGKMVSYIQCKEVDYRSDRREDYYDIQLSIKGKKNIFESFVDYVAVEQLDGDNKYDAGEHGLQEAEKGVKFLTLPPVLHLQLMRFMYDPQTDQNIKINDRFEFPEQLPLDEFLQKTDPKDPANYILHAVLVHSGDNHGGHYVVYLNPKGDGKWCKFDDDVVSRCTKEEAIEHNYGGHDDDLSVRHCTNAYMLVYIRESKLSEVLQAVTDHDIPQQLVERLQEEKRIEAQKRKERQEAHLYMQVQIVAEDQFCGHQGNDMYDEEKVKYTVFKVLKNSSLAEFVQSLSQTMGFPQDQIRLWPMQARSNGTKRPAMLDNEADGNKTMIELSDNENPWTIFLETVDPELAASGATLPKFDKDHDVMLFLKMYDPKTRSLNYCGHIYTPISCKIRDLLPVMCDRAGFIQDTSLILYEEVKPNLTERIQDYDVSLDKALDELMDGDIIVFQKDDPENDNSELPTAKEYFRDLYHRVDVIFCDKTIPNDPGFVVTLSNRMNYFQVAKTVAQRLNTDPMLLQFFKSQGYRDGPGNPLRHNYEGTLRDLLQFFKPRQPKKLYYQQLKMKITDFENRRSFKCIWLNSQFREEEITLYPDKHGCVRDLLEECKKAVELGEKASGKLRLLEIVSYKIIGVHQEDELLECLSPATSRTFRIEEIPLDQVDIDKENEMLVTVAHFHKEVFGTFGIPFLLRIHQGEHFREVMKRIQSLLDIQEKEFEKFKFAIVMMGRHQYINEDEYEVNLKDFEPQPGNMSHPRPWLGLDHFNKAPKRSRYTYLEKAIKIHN
row,IC50,Structure (SMILES)
1,0.38 nM,O=C1CCC(=O)N1Cc1cc2nccc(-c3cc(Cl)cc4c3O[C@@H](c3onc5c3CNCC5)C4)c2s1
2,207 nM,O=C1CCC(=O)N1Cc1cc2nccc(-c3cc(Cl)ccc3O[C@@H]3CNC[C@@H]3F)c2s1
3,1.1 nM,Cc1cc(Cl)cc(-c2ccnc3cc(CN4C(=O)C5CC5C4=O)sc23)c1O[C@@H]1CCNC[C@@H]1C (stereo not given in full)
4,4.6 nM,Cc1cc(Cl)cc(-c2ccnc3cc(CN4C(=O)CCC4=O)sc23)c1O[C@H]1CCCNC1
5,9 nM,O=C([C@H]1Cc2cc(Cl)cc(-c3ccnc4cc(C(O)(CO)CCl)sc34)c2O1)N1CCNCC1 (stereo not given in full)
6,6.6 nM,Cc1cc(Cl)cc(-c2ccnc3cc(CN4C(=O)CCC4=O)sc23)c1CN1CCNC[C@@H]1C
7,0.32 nM,Cc1cc(Cl)cc(-c2ccnc3cc(CN4C(=O)CCC4=O)sc23)c1CN1[C@@H](C)CNC[C@@H]1C
8,0.16 nM,Cc1cc(Cl)cc(-c2ccnc3cc(CN4C(=O)C5CC5C4=O)sc23)c1C[C@@H]1CNCCO1 (stereo not given in full)

# Tested on: MM1.S
# Experiment: Cytotoxicity against human MM1S cells expressing wild type p53 assessed as reduction in cell viability measured after 5 days by CellTiter-Glo assay
# Format: functional
# Conditions: 120 h
row,Structure (SMILES),CC50
1,Cc1cc(Cl)cc(-c2ccnc3cc(CN4C(=O)CCC4=O)sc23)c1CN1[C@@H](C)CNC[C@@H]1C,135 nM
2,Cc1cc(Cl)cc(-c2ccnc3cc(CN4C(=O)C5CC5C4=O)sc23)c1C[C@@H]1CNCCO1 (stereo not given in full),210 nM

# Target: Voltage-gated inwardly rectifying potassium channel KCNH2 (Homo sapiens, UniProt Q12809)
# Experiment: Inhibition of human ERG
# Conditions: not given
# Voltage-gated inwardly rectifying potassium channel KCNH2, sequence (Q12809 whole entry): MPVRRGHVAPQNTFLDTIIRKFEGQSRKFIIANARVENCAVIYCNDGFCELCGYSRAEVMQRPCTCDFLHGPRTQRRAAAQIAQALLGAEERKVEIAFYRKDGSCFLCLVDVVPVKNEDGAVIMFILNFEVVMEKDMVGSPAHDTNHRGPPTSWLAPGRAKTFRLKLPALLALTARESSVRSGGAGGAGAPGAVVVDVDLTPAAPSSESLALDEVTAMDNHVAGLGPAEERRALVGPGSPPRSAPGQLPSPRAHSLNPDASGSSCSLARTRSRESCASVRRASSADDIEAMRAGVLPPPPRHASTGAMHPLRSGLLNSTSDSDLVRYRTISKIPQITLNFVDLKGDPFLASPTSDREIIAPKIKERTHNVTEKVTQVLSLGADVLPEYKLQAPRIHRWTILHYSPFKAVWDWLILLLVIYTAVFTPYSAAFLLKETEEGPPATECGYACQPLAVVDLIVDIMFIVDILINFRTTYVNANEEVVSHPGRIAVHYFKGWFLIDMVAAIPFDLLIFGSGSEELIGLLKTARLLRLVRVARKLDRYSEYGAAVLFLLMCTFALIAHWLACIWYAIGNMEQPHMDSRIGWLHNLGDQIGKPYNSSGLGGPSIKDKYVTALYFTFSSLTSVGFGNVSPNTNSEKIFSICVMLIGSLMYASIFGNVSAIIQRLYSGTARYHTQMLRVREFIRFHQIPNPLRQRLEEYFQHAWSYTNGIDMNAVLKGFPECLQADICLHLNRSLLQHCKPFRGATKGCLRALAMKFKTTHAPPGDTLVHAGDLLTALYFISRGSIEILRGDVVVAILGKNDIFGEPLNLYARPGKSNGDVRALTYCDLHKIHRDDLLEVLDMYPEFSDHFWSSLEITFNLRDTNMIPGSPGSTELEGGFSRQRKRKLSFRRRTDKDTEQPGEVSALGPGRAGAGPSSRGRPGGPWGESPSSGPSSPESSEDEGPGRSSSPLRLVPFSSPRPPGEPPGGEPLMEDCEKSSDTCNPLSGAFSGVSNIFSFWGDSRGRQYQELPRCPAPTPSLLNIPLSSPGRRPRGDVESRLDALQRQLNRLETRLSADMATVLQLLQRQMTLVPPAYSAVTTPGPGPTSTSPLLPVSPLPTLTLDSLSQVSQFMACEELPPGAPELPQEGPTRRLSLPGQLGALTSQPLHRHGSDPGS
row,Structure (SMILES),IC50
1,Cc1cc(Cl)cc(-c2ccnc3cc(CN4C(=O)CCC4=O)sc23)c1CN1[C@@H](C)CNC[C@@H]1C,2.7 µM
2,Cc1cc(Cl)cc(-c2ccnc3cc(CN4C(=O)C5CC5C4=O)sc23)c1C[C@@H]1CNCCO1 (stereo not given in full),8 µM

# Tested on: not listed separately
# Experiment: AUC in Sprague-Dawley rat at 2 mg/kg, po
# Format: ADME, organism-based
# Conditions: in vivo
row,AUC,Structure (SMILES)
1,170 ng·h/mL,Cc1cc(Cl)cc(-c2ccnc3cc(CN4C(=O)CCC4=O)sc23)c1O[C@H]1CCCNC1

# Target: T1, Ubiquitin carboxyl-terminal hydrolase 7
# Experiment: Inhibition of USP7 in human RKO cells transfected with p53 luciferase reporter vector assessed as increase in p53-dependent luciferase activity measured after 18 hrs by BrightGlo luciferase assay
# Format: cell-based
# Conditions: not given
row,EC50,Structure (SMILES)
1,170 nM,Cc1cc(Cl)cc(-c2ccnc3cc(CN4C(=O)C5CC5C4=O)sc23)c1O[C@@H]1CCNC[C@@H]1C (stereo not given in full)
2,180 nM,Cc1cc(Cl)cc(-c2ccnc3cc(CN4C(=O)CCC4=O)sc23)c1O[C@H]1CCCNC1
3,280 nM,Cc1cc(Cl)cc(-c2ccnc3cc(CN4C(=O)CCC4=O)sc23)c1CN1CCNC[C@@H]1C
4,60 nM,Cc1cc(Cl)cc(-c2ccnc3cc(CN4C(=O)CCC4=O)sc23)c1CN1[C@@H](C)CNC[C@@H]1C
5,35 nM,Cc1cc(Cl)cc(-c2ccnc3cc(CN4C(=O)C5CC5C4=O)sc23)c1C[C@@H]1CNCCO1 (stereo not given in full)

# Tested on: not listed separately
# Experiment: Stability of compound in rat hepatocytes assessed as parent compound remaining incubated for 60 mins
# Format: ADME, cell-based, Hepatocyte
# Conditions: read-out: Stability
row,remaining at 1 h,Structure (SMILES)
1,4%,O=C1CCC(=O)N1Cc1cc2nccc(-c3cc(Cl)cc4c3O[C@@H](c3onc5c3CNCC5)C4)c2s1

# Target: T2, Ubiquitin carboxyl-terminal hydrolase 47 (Homo sapiens, UniProt Q96K76)
# T2 sequence (Q96K76 whole entry): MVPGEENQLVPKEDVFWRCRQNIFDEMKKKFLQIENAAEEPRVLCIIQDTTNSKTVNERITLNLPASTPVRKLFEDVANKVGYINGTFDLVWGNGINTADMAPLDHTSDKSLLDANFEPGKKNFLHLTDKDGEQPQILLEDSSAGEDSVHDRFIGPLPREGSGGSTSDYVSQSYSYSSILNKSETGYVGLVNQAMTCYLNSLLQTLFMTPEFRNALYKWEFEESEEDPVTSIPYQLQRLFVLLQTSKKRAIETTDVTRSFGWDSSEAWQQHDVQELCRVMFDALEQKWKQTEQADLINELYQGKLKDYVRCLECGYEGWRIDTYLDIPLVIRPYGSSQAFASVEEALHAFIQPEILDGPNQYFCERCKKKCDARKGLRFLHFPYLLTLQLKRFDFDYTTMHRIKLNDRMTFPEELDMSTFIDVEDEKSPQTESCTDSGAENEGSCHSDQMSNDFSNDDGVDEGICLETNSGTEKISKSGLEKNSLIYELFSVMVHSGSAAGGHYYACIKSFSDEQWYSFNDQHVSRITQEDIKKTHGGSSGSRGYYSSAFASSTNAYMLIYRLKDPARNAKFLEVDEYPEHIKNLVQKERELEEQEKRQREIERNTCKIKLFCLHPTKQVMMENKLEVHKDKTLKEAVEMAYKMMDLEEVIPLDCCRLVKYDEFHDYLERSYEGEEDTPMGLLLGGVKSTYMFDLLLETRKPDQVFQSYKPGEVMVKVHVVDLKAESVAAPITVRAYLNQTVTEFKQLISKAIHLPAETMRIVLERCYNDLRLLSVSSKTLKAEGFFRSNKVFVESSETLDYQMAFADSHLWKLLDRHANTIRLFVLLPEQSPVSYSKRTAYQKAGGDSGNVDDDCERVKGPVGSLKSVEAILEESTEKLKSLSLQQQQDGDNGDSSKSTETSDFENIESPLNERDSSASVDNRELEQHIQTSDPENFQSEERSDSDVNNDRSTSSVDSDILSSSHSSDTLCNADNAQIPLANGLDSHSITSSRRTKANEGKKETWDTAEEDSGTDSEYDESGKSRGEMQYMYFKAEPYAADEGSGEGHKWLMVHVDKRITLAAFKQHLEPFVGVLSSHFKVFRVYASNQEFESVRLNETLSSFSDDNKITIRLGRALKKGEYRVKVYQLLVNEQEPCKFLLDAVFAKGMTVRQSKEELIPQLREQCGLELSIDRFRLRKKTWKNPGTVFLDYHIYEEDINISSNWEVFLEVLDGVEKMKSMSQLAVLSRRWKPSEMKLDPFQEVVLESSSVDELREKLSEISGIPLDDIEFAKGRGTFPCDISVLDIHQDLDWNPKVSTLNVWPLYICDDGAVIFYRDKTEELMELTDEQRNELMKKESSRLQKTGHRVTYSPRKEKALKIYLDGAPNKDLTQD
# Experiment: Inhibition of USP47 (unknown origin) by biochemical assay
# Conditions: not given
row,IC50,Structure (SMILES)
1,> 40 µM,O=C([C@H]1Cc2cc(Cl)cc(-c3ccnc4cc(C(O)(CO)CCl)sc34)c2O1)N1CCNCC1 (stereo not given in full)

# Tested on: not listed separately
# Experiment: Stability of compound in human hepatocytes assessed as parent compound remaining incubated for 60 mins
# Format: ADME, cell-based, Hepatocyte
# Conditions: read-out: Stability
row,remaining at 1 h,Structure (SMILES)
1,26%,O=C1CCC(=O)N1Cc1cc2nccc(-c3cc(Cl)cc4c3O[C@@H](c3onc5c3CNCC5)C4)c2s1

# Tested on: not listed separately
# Experiment: Clearance in Sprague-Dawley rat at 0.5 mg/kg, iv
# Format: ADME, organism-based
# Conditions: in vivo
row,clearance,Structure (SMILES)
1,96.7 mL/min/kg,O=C1CCC(=O)N1Cc1cc2nccc(-c3cc(Cl)cc4c3O[C@@H](c3onc5c3CNCC5)C4)c2s1
2,81.7 mL/min/kg,Cc1cc(Cl)cc(-c2ccnc3cc(CN4C(=O)CCC4=O)sc23)c1O[C@H]1CCCNC1
